Source: patent US8722713B2, “Synergistic antimicrobial composition of 1,2-benzisothiazolin-3-one and tris(hydroxymethyl)nitromethane” (Dow Global Technologies LLC, priority 2010, dated 2014)

Columns and labels:
[1] = test system: oil field isolated anaerobic consortium, mainly SRB; assay: Biocidal efficacy (MBC) against anaerobic bacteria in contaminated salt solution; format: cell-based; settings: 40° C., 24 hour, 10^6 to 10^7 CFU/mL
Procedure: Inside an anaerobic chamber (Bactron anaerobic chamber), a deaerated sterile salt solution (3.1183 g of NaCl, 1.3082 mg of NaHCO3, 47.70 mg of KCl, 72.00 mg of CaCl2, 54.49 mg of MgSO4, 172.28 mg of Na2SO4, 43.92 mg of Na2CO3 in 1 L water) was contaminated with an oil field isolated anaerobic consortium, mainly SRB, at final bacterial concentrations of 10^6 to 10^7 CFU/mL. The aliquots of this contaminated water were then treated with BIT, Tris Nitro, or the BIT/Tris Nitro combinations at different active concentration levels. After the mixtures were incubated at 40° C. for 24 hour, the biocidal efficacy was determined by minimum tested biocide concentration for bacteria kill in the aliquots (MBC). Table 1 summarizes the efficacy of each biocide and their blends, and the Synergy Index* of each combination.

[2] = test system: Psedomonas aeruginosa ATCC 10145 and Staphylococcus aureus ATCC 6538; assay: Biocidal efficacy (MBC, complete kill) against aerobic bacteria in contaminated NaCl solution; format: cell-based; settings: 37° C., 24 hour, ~10^6 CFU/ml
Procedure: A sterile NaCl solution (0.85%) was contaminated with Psedomonas aeruginosa ATCC 10145 and Staphylococcus aureus ATCC 6538 at final bacterial concentration of ˜10^6 CFU/ml. The aliquots of this contaminated water were then treated with BIT, Tris Nitro, or the BIT/Tris Nitro combination at different active concentration levels. […] Table 2 summarizes the efficacy of each biocide and their blends, and the Synergy Index of each combination.

Structure (SMILES)	MBC (active ppm) BIT ([1]; concentration of BIT at minimum tested biocide concentration for bacteria kill) [active ppm]	Dosage required for complete kill (active ppm) BIT ([2]; concentration of BIT at MBC) [active ppm]	MBC (active ppm) Tris Nitro ([1]; concentration of Tris Nitro at minimum tested biocide concentration for bacteria kill) [active ppm]	Dosage required for complete kill (active ppm) Tris Nitro ([2]; concentration of Tris Nitro at MBC) [active ppm]
O=c1[nH]sc2ccccc12 [1:0, 1,2-benzisothiazolin-3-one]	17.3	>25	–	–
O=[N+]([O-])C(CO)(CO)CO [0:1, tris(hydroxymethyl)nitromethane]	–	–	>100	25.7
